One assay has as its target T1, p300 (Homo sapiens, UniProt Q09472).
T1 construct: host or cells: A549 P300 HiBit cells
Description: P300 degradation, HiBit technology in A549 P300 HiBit cells (2 h). The following applies: 2 hrs post treatment; for Dmax: A549, A549 P300 HiBit cells; for DC50: A549 P300 HiBit cells. Type of assay: cell-based. The gist of the method: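 Degradation potency and Dmax came from luminescence after 10 min room-temperature lysis with HiBit detection buffer. Beforehand, HiBit-tagged A549 lines received serial compound dilutions (10 mM DMSO stocks) at 37 °C, 5% CO2. CBP cells were read at 24 h, p300 cells at 2 h.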
On the technique in general: The HiBiT peptide binds its large partner to form an active luciferase.

A further assay deals with T2, CBP (Homo sapiens, UniProt Q92793).
T2 construct: host or cells: A549 CBP HiBit cells
Nature of the assay: CBP degradation, HiBit technology in A549 CBP HiBit cells (24 h). The format is cell-based. The following applies: 24 hrs post treatment. As for the experimental part: p300 and CBP degradation potency and Dmax were determined using in cell western (ICW) assay technology in H1299 cells or HiBit technology in A549 HiBit cells.
A549 P300 HiBit and A549 CBP HiBit cells were plated in separate 384-well, TC treated, white-opaque, flat-bottomed microplate. Cells were plated at a cell density of 0.2×10^4 cells per well in assay media comprised of F-12K, 10% heat inactivated FBS, and 1% penicillin/streptomycin. Assay microplates containing HiBit cells were placed in a 37° C., 5% CO2, tissue culture incubator and left to equilibrate overnight. The next day cells were treated with serial dilutions of test compound made up of 10 mM stock solutions in DMSO. 384-Well plates containing treated cells were then placed back into a 37° C., 5% CO2, tissue culture incubator. Assay microplates containing A549 P300 HiBit cells were incubated for 2 hrs post treatment before P300 destruction was assessed, while microplates containing A549 CBP HiBit cells were incubated for 24 hrs post treatment before CBP destruction was determined. On the day of each assay time point, microplates were removed from the tissue culture incubator and prepared HiBit Lytic detection buffer (Promega, cat #N3O40) was added to each plate. Plates were covered with aluminum foil and incubated for ten minutes at room temperature on an orbital shaker. After incubation, luminescent signal of each plate was measured using the Envision instrument (Perkin Elmer).

Molecules are shown by their SMILES.

T2 sequence (Q92793 whole entry): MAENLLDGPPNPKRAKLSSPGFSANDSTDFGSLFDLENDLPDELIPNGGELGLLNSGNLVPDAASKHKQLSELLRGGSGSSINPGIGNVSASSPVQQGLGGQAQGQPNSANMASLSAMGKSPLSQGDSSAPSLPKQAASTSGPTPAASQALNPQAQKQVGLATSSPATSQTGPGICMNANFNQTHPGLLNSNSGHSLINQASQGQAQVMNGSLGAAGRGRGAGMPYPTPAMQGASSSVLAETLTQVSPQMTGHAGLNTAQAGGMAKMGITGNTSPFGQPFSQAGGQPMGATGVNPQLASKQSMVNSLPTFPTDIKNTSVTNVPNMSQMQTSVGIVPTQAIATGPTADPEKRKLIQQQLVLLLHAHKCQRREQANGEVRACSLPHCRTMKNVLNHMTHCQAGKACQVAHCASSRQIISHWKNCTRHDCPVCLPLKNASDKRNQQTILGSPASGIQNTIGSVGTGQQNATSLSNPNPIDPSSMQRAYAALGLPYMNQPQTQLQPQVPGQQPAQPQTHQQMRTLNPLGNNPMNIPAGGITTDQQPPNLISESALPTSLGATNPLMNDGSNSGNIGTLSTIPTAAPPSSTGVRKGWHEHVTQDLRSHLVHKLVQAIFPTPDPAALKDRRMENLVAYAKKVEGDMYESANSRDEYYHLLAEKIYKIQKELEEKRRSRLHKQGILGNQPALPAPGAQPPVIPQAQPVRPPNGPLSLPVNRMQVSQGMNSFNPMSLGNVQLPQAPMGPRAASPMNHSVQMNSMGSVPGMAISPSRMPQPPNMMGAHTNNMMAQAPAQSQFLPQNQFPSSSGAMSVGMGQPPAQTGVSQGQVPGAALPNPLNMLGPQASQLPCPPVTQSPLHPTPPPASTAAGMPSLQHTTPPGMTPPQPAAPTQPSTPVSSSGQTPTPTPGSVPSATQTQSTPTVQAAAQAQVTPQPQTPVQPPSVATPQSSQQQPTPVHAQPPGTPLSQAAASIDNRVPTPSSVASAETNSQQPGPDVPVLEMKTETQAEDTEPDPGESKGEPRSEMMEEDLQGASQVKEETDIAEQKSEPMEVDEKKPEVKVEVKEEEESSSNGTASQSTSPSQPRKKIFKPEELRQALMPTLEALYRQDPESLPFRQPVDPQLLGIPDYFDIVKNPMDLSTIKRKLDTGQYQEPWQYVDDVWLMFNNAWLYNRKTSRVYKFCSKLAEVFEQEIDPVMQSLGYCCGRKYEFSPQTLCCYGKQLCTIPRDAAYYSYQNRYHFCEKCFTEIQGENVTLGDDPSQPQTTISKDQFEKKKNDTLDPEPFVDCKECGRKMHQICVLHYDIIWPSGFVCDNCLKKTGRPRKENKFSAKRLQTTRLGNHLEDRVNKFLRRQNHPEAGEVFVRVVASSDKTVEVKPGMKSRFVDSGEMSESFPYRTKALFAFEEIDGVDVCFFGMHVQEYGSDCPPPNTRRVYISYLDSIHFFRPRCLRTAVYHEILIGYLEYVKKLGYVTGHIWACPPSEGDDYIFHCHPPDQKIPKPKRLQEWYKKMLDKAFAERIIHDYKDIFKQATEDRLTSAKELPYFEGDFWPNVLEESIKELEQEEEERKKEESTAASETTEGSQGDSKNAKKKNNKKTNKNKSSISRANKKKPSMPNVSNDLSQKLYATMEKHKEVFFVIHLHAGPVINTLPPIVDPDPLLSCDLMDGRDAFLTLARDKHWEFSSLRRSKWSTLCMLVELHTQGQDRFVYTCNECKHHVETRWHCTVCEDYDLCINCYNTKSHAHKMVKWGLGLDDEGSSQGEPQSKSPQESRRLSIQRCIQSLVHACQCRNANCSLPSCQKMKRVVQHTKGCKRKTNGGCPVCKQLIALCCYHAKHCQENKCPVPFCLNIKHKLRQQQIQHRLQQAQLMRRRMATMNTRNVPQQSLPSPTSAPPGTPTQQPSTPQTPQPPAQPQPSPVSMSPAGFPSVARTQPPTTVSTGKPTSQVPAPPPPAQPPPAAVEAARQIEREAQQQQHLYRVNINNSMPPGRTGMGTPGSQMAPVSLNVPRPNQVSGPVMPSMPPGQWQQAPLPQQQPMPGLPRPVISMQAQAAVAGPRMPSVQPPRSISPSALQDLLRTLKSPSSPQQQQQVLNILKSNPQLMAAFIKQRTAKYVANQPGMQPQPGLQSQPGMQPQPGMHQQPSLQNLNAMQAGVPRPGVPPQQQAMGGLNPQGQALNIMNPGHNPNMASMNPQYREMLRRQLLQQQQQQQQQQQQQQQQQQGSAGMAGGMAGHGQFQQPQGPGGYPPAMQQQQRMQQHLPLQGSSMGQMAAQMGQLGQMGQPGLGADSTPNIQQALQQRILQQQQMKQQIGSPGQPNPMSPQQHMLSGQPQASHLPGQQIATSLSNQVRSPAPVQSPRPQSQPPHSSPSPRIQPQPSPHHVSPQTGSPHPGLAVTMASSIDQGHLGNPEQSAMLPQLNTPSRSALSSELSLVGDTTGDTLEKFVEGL
T1 sequence (Q09472 whole entry): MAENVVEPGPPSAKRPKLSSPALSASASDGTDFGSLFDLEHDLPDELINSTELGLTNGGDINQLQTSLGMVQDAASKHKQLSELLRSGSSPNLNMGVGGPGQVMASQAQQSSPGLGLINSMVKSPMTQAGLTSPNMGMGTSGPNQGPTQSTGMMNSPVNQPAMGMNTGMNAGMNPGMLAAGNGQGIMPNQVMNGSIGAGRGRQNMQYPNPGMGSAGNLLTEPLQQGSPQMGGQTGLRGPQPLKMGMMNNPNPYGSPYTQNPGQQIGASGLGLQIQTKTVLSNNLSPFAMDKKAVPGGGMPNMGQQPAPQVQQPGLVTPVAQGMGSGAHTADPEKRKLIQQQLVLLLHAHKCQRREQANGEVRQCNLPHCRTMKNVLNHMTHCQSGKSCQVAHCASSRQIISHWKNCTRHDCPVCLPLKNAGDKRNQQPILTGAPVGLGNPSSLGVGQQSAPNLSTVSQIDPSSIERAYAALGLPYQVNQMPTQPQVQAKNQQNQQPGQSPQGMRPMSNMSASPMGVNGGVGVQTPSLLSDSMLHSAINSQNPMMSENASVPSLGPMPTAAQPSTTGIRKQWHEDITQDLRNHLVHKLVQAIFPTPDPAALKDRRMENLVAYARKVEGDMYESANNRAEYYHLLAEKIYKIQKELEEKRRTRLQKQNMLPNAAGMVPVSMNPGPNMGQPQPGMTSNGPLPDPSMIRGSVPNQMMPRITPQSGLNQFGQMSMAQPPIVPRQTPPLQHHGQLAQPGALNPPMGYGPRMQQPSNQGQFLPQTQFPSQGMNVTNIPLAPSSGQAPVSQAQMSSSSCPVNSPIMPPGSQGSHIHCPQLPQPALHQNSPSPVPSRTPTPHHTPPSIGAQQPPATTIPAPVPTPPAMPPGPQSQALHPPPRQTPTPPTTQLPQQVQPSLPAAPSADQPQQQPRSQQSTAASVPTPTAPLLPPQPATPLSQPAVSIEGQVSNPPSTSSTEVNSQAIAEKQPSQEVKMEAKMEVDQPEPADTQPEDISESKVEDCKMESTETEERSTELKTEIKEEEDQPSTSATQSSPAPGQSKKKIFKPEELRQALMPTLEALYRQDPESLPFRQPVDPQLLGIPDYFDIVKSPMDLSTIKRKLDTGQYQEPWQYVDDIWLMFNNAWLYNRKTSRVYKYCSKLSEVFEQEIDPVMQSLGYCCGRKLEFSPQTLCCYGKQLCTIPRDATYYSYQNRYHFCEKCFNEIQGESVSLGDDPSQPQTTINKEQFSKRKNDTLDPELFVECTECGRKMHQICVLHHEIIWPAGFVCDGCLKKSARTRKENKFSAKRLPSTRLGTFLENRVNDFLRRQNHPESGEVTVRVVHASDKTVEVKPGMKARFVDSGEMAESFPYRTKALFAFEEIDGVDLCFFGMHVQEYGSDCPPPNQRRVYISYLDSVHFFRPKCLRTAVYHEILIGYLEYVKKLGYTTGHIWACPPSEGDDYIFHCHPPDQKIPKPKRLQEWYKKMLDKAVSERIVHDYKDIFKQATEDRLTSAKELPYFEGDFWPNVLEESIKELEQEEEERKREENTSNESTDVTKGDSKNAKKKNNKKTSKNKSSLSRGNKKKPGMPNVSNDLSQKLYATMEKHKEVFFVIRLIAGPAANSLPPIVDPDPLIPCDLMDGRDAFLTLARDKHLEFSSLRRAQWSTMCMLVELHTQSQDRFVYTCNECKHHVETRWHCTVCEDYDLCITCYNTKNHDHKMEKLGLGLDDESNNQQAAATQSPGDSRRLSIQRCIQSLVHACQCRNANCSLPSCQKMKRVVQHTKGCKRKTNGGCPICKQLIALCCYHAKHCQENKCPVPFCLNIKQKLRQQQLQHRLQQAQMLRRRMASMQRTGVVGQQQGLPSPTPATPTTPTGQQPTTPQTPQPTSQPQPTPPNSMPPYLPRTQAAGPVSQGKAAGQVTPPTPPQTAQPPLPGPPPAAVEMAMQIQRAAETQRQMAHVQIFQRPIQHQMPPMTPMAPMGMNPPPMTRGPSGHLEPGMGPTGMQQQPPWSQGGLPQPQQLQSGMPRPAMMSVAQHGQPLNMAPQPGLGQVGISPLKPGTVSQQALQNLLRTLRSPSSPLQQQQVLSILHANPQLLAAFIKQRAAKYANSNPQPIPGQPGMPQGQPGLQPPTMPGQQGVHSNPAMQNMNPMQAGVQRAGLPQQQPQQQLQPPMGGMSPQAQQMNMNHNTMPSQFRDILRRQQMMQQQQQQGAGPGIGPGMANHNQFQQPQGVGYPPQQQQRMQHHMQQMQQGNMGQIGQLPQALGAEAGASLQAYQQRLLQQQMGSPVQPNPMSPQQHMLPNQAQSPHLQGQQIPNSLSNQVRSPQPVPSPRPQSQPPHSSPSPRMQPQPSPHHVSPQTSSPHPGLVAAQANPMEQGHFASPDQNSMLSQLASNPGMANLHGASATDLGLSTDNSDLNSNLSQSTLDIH

For orientation: Dmax means the greatest extent of degradation seen. Low values mean shallow degradation, high ones deep degradation. One may read the DC50 as the concentration giving 50% degradation. Lower therefore signals a more potent degrader. On p300, `Cc1cc(-c2cc3cccc(-c4cc5c(c(N6CC7CCC(C6)O7)n4)n(C)c(=O)n5C)c3cn2)cnc1C(=O)NCC#Cc1ccc2occ(C3CCC(=O)NC3=O)c2c1` (stereo not drawn) [Example A69, 5-(8-(4-(8-oxa-3-azabicyclo [3.2.1]octan-3-yl)-1,3-dimethyl-2-oxo-2,3-dihydro-1H-imidazo[4,5-c]pyridin-6-yl)isoquinolin-3-yl)-N-(3-(3-(2,6-dioxo-piperidin-3-yl)benzofuran-5-yl)prop-2-yn-1-yl)-3-methylpicolinamide] registered a maximal degradation (Dmax) of over 80% and a DC50 of 1 to 9.9 nM. On CBP, this molecule came in with a DC50 of over 1000 nM and a Dmax of under 20%.

Turning to `CC(C)c1cc(-c2cccc3cc(-c4ccc(C(=O)NCC#Cc5ccc6oc(=O)n(C7CCC(=O)NC7=O)c6c5)nc4)ncc23)cc2c1n(C)c(=O)n2C` (stereo not drawn) [Example A14, N-(3-(3-(2,6-Dioxopiperidin-3-yl)-2-oxo-2,3-dihydrobenzo[d]oxazol-5-yl)prop-2-yn-1-yl)-5-(8-(7-isopropyl-1,3-dimethyl-2-oxo-2,3-dihydro-1H-benzo[d]imidazol-5-yl)isoquinolin-3-yl)picolinamide], on p300, the Dmax was over 80% and the DC50 was 1 to 9.9 nM. For the same molecule, at CBP, the DC50 is 10 to 99 nM and the Dmax is 60 to 79%.

At p300, `Cc1ccc(-c2ccc3c(c2)n(C)c(=O)n3C)c2cnc(-c3ccc(C(=O)NCC#Cc4ccc5occ(C6CCC(=O)NC6=O)c5c4)nc3)cc12` (stereo not drawn) [Example A72, 5-(8-(1,3-dimethyl-2-oxo-2,3-dihydro-1H-benzo[d]imidazol-5-yl)-5-methylisoquinolin-3-yl)-N-(3-(3-(2,6-dioxopiperidin-3-yl)benzofuran-5-yl)prop-2-yn-1-yl)picolinamide] yielded a Dmax of over 80% and a DC50 of 1 to 9.9 nM. At CBP, the DC50 was over 1000 nM and the Dmax was under 20%.

On p300, `Cc1cc2c(N3CCCc4nc(-c5ccc(C(=O)NCC#Cc6cc7c(C8CCC(=O)NC8=O)cccc7o6)nc5)ncc43)cc(C(C)C)nc2n(C)c1=O` (stereo not drawn) [Example B56, N-(3-(4-(2,6-dioxopiperidin-3-yl)benzofuran-2-yl)prop-2-yn-1-yl)-5-(5-(2-isopropyl-6,8-dimethyl-7-oxo-7,8-dihydro-1,8-naphthyridin-4-yl)-5,6,7,8-tetrahydropyrido[3,2-d]pyrimidin-2-yl)picolinamide] showed a Dmax of over 80% and a DC50 of 1 to 9.9 nM. At CBP, this molecule registered a DC50 of over 1000 nM and a Dmax of under 20%.

In the case of `Cn1c(=O)n(C)c2c(N3CCOCC3)nc(-c3cccc4cc(-c5ccc(C(=O)NCC#Cc6ccc7occ(C8CCC(=O)NC8=O)c7c6)nc5)ncc34)cc21` (stereo not drawn) [Example A138, 5-(8-(1,3-dimethyl-4-morpholino-2-oxo-2,3-dihydro-1H-imidazo[4,5-c]pyridin-6-yl)isoquinolin-3-yl)-N-(3-(3-(2,6-dioxopiperidin-3-yl)benzofuran-5-yl)prop-2-yn-1-yl)picolinamide], at p300, the greatest degradation seen (Dmax) was over 80% and the DC50 is under 1 nM. At CBP, this molecule returned a DC50 of over 1000 nM and a Dmax of under 20%.

Consider `Cc1cc2c(N3CCCc4nc(-c5ccc(C(=O)NCC#Cc6cc7c([C@H]8CCC(=O)NC8=O)cccc7o6)nc5)ncc43)nc(N3CCOCC3)cc2n(C)c1=O` [Example B29, (R)-5-(5-(1,3-dimethyl-7-morpholino-2-oxo-1,2-dihydro-1,6-naphthyridin-5-yl)-5,6,7,8-tetrahydropyrido[3,2-d]pyrimidin-2-yl)-N-(3-(4-(2,6-dioxopiperidin-3-yl)benzofuran-2-yl)prop-2-yn-1-yl)picolinamide], for which, on p300, the Dmax was over 80% and the DC50 was under 1 nM. At CBP, the DC50 fell in the range of 100 to 999 nM and the Dmax was under 20%.

Regarding `Cn1c(=O)n(C)c2cc(-c3cccc4cc(-c5ccc(C(=O)NCC#Cc6ccc7cnn(C8CCC(=O)NC8=O)c7c6)nc5)ncc34)ccc21` (stereo not drawn) [Example A255, 5-(8-(1,3-dimethyl-2-oxo-2,3-dihydro-1H-benzo[d]imidazol-5-yl)isoquinolin-3-yl)-N-(3-(1-(2,6-dioxo-piperidin-3-yl)-1H-indazol-6-yl)prop-2-yn-1-yl)picolinamide], on p300, the Dmax is over 80% and the DC50 is 1 to 9.9 nM. Besides, on CBP, the DC50 is over 1000 nM and the Dmax is under 20%.

As for `CC(C)c1cc(-c2cccc3cc(-c4ccc(C(=O)NCC#Cc5ccc6ncc(C7CCC(=O)NC7=O)n6c5)nc4)ncc23)cc2c1n(C)c(=O)n2C` (stereo not drawn) [Example A25, N-(3-(3-(2,6-Dioxopiperidin-3-yl)imidazo[1,2-a]pyridin-6-yl)prop-2-yn-1-yl)-5-(8-(7-isopropyl-1,3-dimethyl-2-oxo-2,3-dihydro-1H-benzo[d]imidazol-5-yl)isoquinolin-3-yl)picolinamide], the values for the Dmax at p300 and at CBP were over 80% and under 20%, respectively. Also, the DC50 on p300 was under 1 nM; on CBP it was 100 to 999 nM.

Turning to `Cc1cc2c(N3CCCc4nc(-c5ccc(C(=O)NCC#Cc6cc7c(C8CCC(=O)NC8=O)cccc7o6)nc5)ncc43)cc(C3CC4CCC(C3)O4)nc2n(C)c1=O` (stereo not drawn) [Example B159, 5-(5-(2-(8-oxabicyclo[3.2.1]octan-3-yl)-6,8-dimethyl-7-oxo-7,8-dihydro-1,8-naphthyridin-4-yl)-5,6,7,8-tetrahydropyrido[3,2-d]pyrimidin-2-yl)-N-(3-(4-(2,6-dioxopiperidin-3-yl)benzofuran-2-yl)prop-2-yn-1-yl)picolinamide], on p300, the Dmax is over 80% and the DC50 is 1 to 9.9 nM. On CBP, this molecule registered a DC50 of 100 to 999 nM and a Dmax of 20 to 39%.

In the case of `CC(C)c1cc(-c2cccc3cc(-c4ccc(C(=O)NCC#Cc5ccc6scc(C7CCC(=O)NC7=O)c6c5)nc4)ncc23)cc2c1n(C)c(=O)n2C` (stereo not drawn) [Example A164, N-(3-(3-(2,6-dioxo-piperidin-3-yl)benzo[b]thiophen-5-yl)prop-2-yn-1-yl)-5-(8-(7-isopropyl-1,3-dimethyl-2-oxo-2,3-dihydro-1H-benzo [d]imidazol-5-yl)isoquinolin-3-yl)picolinamide], at p300, the Dmax was over 80% and the DC50 was 10 to 99 nM. On CBP, the DC50 was over 1000 nM and the Dmax was under 20%.

At p300, `Cc1cc2c(N3CCCc4cc(-c5ccc(C(=O)NCC#Cc6ccc7occ(C8CCC(=O)NC8=O)c7c6)nc5)nnc43)cc(C3CCOCC3)cc2n(C)c1=O` (stereo not drawn) [Example B64, 5-(8-(1,3-dimethyl-2-oxo-7-(tetrahydro-2H-pyran-4-yl)-1,2-dihydroquinolin-5-yl)-5,6,7,8-tetrahydropyrido[2,3-c]pyridazin-3-yl)-N-(3-(3-(2,6-dioxopiperidin-3-yl)benzofuran-5-yl)prop-2-yn-1-yl)picolinamide] gave a Dmax of over 80% and a DC50 of 1 to 9.9 nM. On CBP, this molecule showed a DC50 of over 1000 nM and a Dmax of under 20%.

For the molecule `Cc1cc2c(-c3cccc4cc(-c5ccc(C(=O)NCC#Cc6ccc7occ(C8CCC(=O)NC8=O)c7c6)nc5)ncc34)nc(C3CCOCC3)cc2n(C)c1=O` (stereo not drawn) [Example B132, 5-(8-(1,3-dimethyl-2-oxo-7-(tetrahydro-2H-pyran-4-yl)-1,2-dihydro-1,6-naphthyridin-5-yl)isoquinolin-3-yl)-N-(3-(3-(2,6-dioxo-piperidin-3-yl)benzofuran-5-yl)prop-2-yn-1-yl)picolinamide], at p300, the Dmax is over 80% and the DC50 fell in the range of 1 to 9.9 nM. At CBP, this molecule came in with a DC50 of over 1000 nM and a Dmax of under 20%.

Take `CC(C)c1cc(N2CCOc3cc(-c4ccc(C(=O)NCC#Cc5ccc6occ(C7CCC(=O)NC7=O)c6c5)nc4)ncc32)cc2c1n(C)c(=O)n2C` (stereo not drawn) [Example A58, N-(3-(3-(2,6-dioxopiperidin-3-yl)benzofuran-5-yl)prop-2-yn-1-yl)-5-(4-(7-isopropyl-1,3-dimethyl-2-oxo-2,3-dihydro-1H-benzo[d]imidazol-5-yl)-3,4-dihydro-2H-pyrido[4,3-b][1,4]oxazin-7-yl)picolinamide]: the figures for the Dmax at p300 and on CBP were over 80% and under 20%, respectively. Also, the results for the DC50 at p300 and at CBP were 1 to 9.9 nM and over 1000 nM, respectively.

For the molecule `CN1Cc2c(-c3cccc4cc(-c5ccc(C(=O)NCC#Cc6ccc7cnn(C8CCC(=O)NC8=O)c7c6)nc5)ncc34)cc(C(C)(F)F)cc2N(C)C1=O` (stereo not drawn) [Example B111, 5-(8-(7-(1,1-difluoroethyl)-1,3-dimethyl-2-oxo-1,2,3,4-tetrahydroquinazolin-5-yl)isoquinolin-3-yl)-N-(3-(1-(2,6-dioxopiperidin-3-yl)-1H-indazol-6-yl)prop-2-yn-1-yl)picolinamide], the figures for the DC50 on p300 and on CBP were 1 to 9.9 nM and 10 to 99 nM, respectively.
